Measurements published in ChEMBL document CHEMBL4715849, “Recent Progress in the Discovery of Antifungal Agents Targeting the Cell Wall” (J Med Chem, 2020).
≈ marks a conversion by molar mass, not a printed value. Blank lines part the entries; values can stand above or below the compound they belong to. Square brackets hold non-standard residues; d marks the D form. Peptide text beside a SMILES is read from it. * marks the point of attachment. Fumaryl(OMe) = COC(=O)/C=C/C(=O)*; Dap = NC[C@H](N)C(=O)O

Key:
Format in all cases: functional
Candida albicans [1] = assay: Antifungal activity against Candida albicans AMB-25 incubated for 48 hrs by serial two-fold dilution method
Candida parapsilosis [2] = assay: Antifungal activity against Candida parapsilosis K332 by agar incorporation method; settings: Lodderomyces parapsilosis
Candida albicans [3] = assay: Antifungal activity against Candida albicans K341 by agar incorporation method
Candida parapsilosis [4] = assay: Antifungal activity against Candida parapsilosis K1154 by agar incorporation method; settings: Lodderomyces parapsilosis
Candida tropicalis [5] = assay: Antifungal activity against Candida tropicalis K337 by agar incorporation method
Cyberlindnera jadinii = assay: Antifungal activity against Candida utilis K482 by agar incorporation method; settings: Williopsis jadinii
[6] = test system: Meyerozyma guilliermondii; assay: Antifungal activity against Candida guilliermondii K334 by agar incorporation method
Candida tropicalis [7] = assay: Antifungal activity against Candida tropicalis K1155 by agar incorporation method
Candida albicans [8] = assay: Antifungal activity against Candida albicans K1133 by agar incorporation method
Candida albicans [9] = assay: Antifungal activity against Candida albicans K335 by agar incorporation method
Candida albicans [10] = assay: Antifungal activity against Candida albicans K1082 by agar incorporation method
Pichia kudriavzevii = assay: Antifungal activity against Candida krusei K1153 by agar incorporation method
Candida albicans [11] = assay: Antifungal activity against Candida albicans ATCC 262 incubated for 24 hrs by turbidimetric method
Candida albicans [12] = assay: Antifungal activity against Candida albicans incubated for 24 hrs by turbidimetric method
Candida albicans [13] = assay: Antifungal activity against Candida albicans Ca1055 by CLSI method
Candida parapsilosis [14] = assay: Antifungal activity against Candida parapsilosis ATCC22019 by CLSI method; settings: Lodderomyces parapsilosis
Candida albicans [15] = assay: Antifungal activity against Candida albicans Ca2323/ORF6.945 by CLSI method

SMILES: COC(=O)/C=C/C(=O)NC[C@H](NC(=O)[C@H](N)Cc1ccccc1)C(=O)O
- MIC (Candida albicans [1]): 0.4 µg/mL (≈ 1.1 µM)

SMILES: COC(=O)/C=C/C(=O)NC[C@H](NC(=O)[C@H](N)C(C)C)C(=O)O
- MIC (Candida albicans [1]): 0.4 µg/mL (≈ 1.27 µM)

SMILES: CCC(N)C(=O)N[C@@H](CNC(=O)/C=C/C(=O)OC)C(=O)O (stereo partly drawn)
- MIC (Candida albicans [1]): 0.4 µg/mL (≈ 1.33 µM)

SMILES: CCC(O)/C=C/C=C/C=C/C(=O)OC[C@H]1O[C@@H](O[C@H]2[C@H](OC(=O)/C=C/C=C/C[C@H](O)/C(C)=C/C=C/CC[C@@H](C)CC)[C@@H](O)[C@@]3(OCc4cc(O)cc(O)c43)O[C@@H]2CO)[C@H](O)[C@@H](O)[C@H]1O (stereo partly drawn)
- MIC (Candida parapsilosis [2]): 0.1 µg/mL (≈ 0.111 µM)
- MIC (Candida albicans [3]): 0.1 µg/mL (≈ 0.111 µM)
- MIC (Candida parapsilosis [4]): 0.1 µg/mL (≈ 0.111 µM)
- MIC (Candida tropicalis [5]): 0.1 µg/mL (≈ 0.111 µM)
- MIC (Cyberlindnera jadinii): 0.1 µg/mL (≈ 0.111 µM)
- MIC [6]: 0.1 µg/mL (≈ 0.111 µM)
- MIC (Candida tropicalis [7]): 0.1 µg/mL (≈ 0.111 µM)
- MIC (Candida albicans [8]): 0.1 µg/mL (≈ 0.111 µM)
- MIC (Candida albicans [9]): 0.1 µg/mL (≈ 0.111 µM)
- MIC (Candida albicans [10]): 0.1 µg/mL (≈ 0.111 µM)
- MIC (Pichia kudriavzevii): 0.1 µg/mL (≈ 0.111 µM)

SMILES: COC(=O)/C=C/C(=O)NC[C@H](N)C(=O)N[C@H](C(=O)O)C(C)C
- MIC (Candida albicans [1]): 0.4 µg/mL (≈ 1.27 µM)

SMILES: COC(=O)/C=C/C(=O)NC[C@H](N)C(=O)N[C@@H](Cc1ccccc1)C(=O)O
- MIC (Candida albicans [1]): 0.4 µg/mL (≈ 1.1 µM)

SMILES: CCCCC/C=C/C=C/C(=O)OC[C@H]1O[C@@H](O[C@H]2[C@H](OC(=O)/C=C/C=C/C[C@H](O)/C(C)=C/C=C/CC[C@@H](C)CC)[C@@H](O)[C@@]3(OCc4cc(O)cc(O)c43)O[C@@H]2CO)[C@H](O)[C@@H](O)[C@H]1O
- MIC (Candida parapsilosis [2]): 0.1 µg/mL (≈ 0.113 µM)
- MIC (Candida albicans [3]): 0.1 µg/mL (≈ 0.113 µM)
- MIC (Candida parapsilosis [4]): 0.1 µg/mL (≈ 0.113 µM)
- MIC (Candida tropicalis [5]): 0.1 µg/mL (≈ 0.113 µM)
- MIC (Cyberlindnera jadinii): 0.1 µg/mL (≈ 0.113 µM)
- MIC [6]: 0.1 µg/mL (≈ 0.113 µM)
- MIC (Candida tropicalis [7]): 0.1 µg/mL (≈ 0.113 µM)
- MIC (Candida albicans [8]): 0.1 µg/mL (≈ 0.113 µM)
- MIC (Candida albicans [9]): 0.1 µg/mL (≈ 0.113 µM)
- MIC (Candida albicans [10]): 0.1 µg/mL (≈ 0.113 µM)
- MIC (Pichia kudriavzevii): 0.1 µg/mL (≈ 0.113 µM)

SMILES: CCCC(C)Oc1cccc(NC(=O)c2cccnc2)c1 (stereo not drawn)
- MIC (Candida albicans [13]): 4 µg/mL (≈ 14.1 µM)
- MIC (Candida parapsilosis [14]): 8 µg/mL (≈ 28.1 µM)
- MIC (Candida albicans [15]): 4 µg/mL (≈ 14.1 µM)

SMILES: COC(=O)/C=C/C(=O)NC[C@H](N)C(=O)N[C@@H](C)C(=O)O
- MIC (Candida albicans [1]): 0.4 µg/mL (≈ 1.39 µM)

SMILES: COC(=O)/C=C/C(=O)NC[C@H](N)C(=O)N[C@@H](Cc1ccc(O)cc1)C(=O)O
- MIC (Candida albicans [1]): 0.4 µg/mL (≈ 1.05 µM)

SMILES: COC(=O)/C=C/C(=O)NC[C@H](NC(=O)[C@@H](C)N)C(=O)O
- MIC (Candida albicans [1]): 0.4 µg/mL (≈ 1.39 µM)

Results, then the compound that gave them:

- MIC (Candida albicans [11]): 0.025 µg/mL (≈ 0.0369 µM)
- MIC (Candida albicans [12]): 0.025 µg/mL (≈ 0.0369 µM)
SMILES: COC(=O)/C=C/C(=O)NC[C@H](NC(=O)[C@H](CCSC)NC(=O)[C@H](CCSC)NC(=O)[C@@H](N)CNC(=O)/C=C/C(=O)OC)C(=O)O (H-[Dap](Fumaryl(OMe))MM[Dap](Fumaryl(OMe))-OH)

- MIC (Candida albicans [11]): 0.025 µg/mL (≈ 0.0561 µM)
- MIC (Candida albicans [12]): 0.025 µg/mL (≈ 0.0561 µM)
SMILES: CCCC(NC(=O)[C@@H](N)CCSC)C(=O)N[C@@H](CNC(=O)/C=C/C(=O)OC)C(N)=O (stereo partly drawn)

- MIC (Candida albicans [1]): 0.4 µg/mL (≈ 1.21 µM)
SMILES: COC(=O)/C=C/C(=O)NC[C@H](N)C(=O)N[C@@H](CC(C)C)C(=O)O

- MIC (Candida albicans [11]): 0.025 µg/mL (≈ 0.0597 µM)
- MIC (Candida albicans [12]): 0.025 µg/mL (≈ 0.0597 µM)
SMILES: COC(=O)/C=C/C(=O)NC[C@H](N)C(=O)N[C@@H](CCSC)C(=O)N[C@@H](C)C(=O)O

- MIC (Candida albicans [1]): 0.4 µg/mL (≈ 1.15 µM)
SMILES: COC(=O)/C=C/C(=O)NC[C@H](NC(=O)[C@H](N)CCSC)C(=O)O

- MIC (Candida albicans [11]): 0.025 µg/mL (≈ 0.0523 µM)
- MIC (Candida albicans [12]): 0.025 µg/mL (≈ 0.0523 µM)
SMILES: COC(=O)/C=C/C(=O)NC[C@H](NC(=O)[C@H](CCSC)NC(=O)[C@@H](N)CCSC)C(N)=O

- MIC (Candida albicans [1]): 0.4 µg/mL (≈ 1.27 µM)
SMILES: CCCC(NC(=O)[C@@H](N)CNC(=O)/C=C/C(=O)OC)C(=O)O (stereo partly drawn)

- MIC (Candida albicans [11]): 0.025 µg/mL (≈ 0.0564 µM)
- MIC (Candida albicans [12]): 0.025 µg/mL (≈ 0.0564 µM)
SMILES: CCC[C@H](NC(=O)[C@@H](N)CCCCN)C(=O)N[C@@H](CNC(=O)/C=C/C(=O)OC)C(=O)O

- MIC (Candida albicans [11]): 0.025 µg/mL (≈ 0.0458 µM)
- MIC (Candida albicans [12]): 0.025 µg/mL (≈ 0.0458 µM)
SMILES: COC(=O)/C=C/C(=O)NC[C@H](NC(=O)[C@H](CCSC)NC(=O)[C@@H](N)CNC(=O)/C=C/C(=O)OC)C(=O)O
